The NIST ThermoML archive (doi:10.1016/j.jct.2004.07.024)
± gives the expanded uncertainty stated by the source.

What was measured:
[1] = refractive index (Na D-line) (dimensionless); details: 293.15 K; 101.33 kPa; Liquid; Standard Abbe refractometry
[2] = 298.15 K; 101.33 kPa; Liquid

SMILES	refractive index [1]	mass density [2]
C[S+](C)[O-] [dimethyl sulfoxide]	1.4785 ± 0.0004	1095.62 ± 0.32 kg/m3
CCc1ccccc1 [ethylbenzene]	1.4962 ± 0.0005	862.44 ± 0.55 kg/m3
c1ccccc1 [benzene]	1.5009 ± 0.0004	873.56 ± 0.35 kg/m3
C=Cc1ccccc1 [styrene]	1.546 ± 0.0005	901.51 ± 0.54 kg/m3
Cc1ccccc1 [toluene]	1.4965 ± 0.0006	862.14 ± 0.94 kg/m3
